Patent publication US20240343740A1, “MACROCYCLIC GLUCAGON-LIKE PEPTIDE 1 RECEPTOR AGONISTS” (Eli Lilly and Company, priority 2021, published 2024)

How the values were obtained:
human GLP-1R [1] = molecular target: T1, human GLP-1R (Homo sapiens, UniProt P43220); test: Human GLP-1 Receptor HEK293 cell cAMP assay, 581 fmol/mg GLP-1R expression density; format: cell-based; design: expressed in transfected cells; host or cells: HEK293 clonal cell line; settings: HEK293 cell line with 581 fmol/mg expression density of GLP-1R; for EC50: geometric mean, read-out: EC50 nM (SEM, n), intracellular cAMP response, relative EC50; for Emax: percent of maximal response to GLP-1(7-36)NH2, arithmetic mean, read-out: Emax % (SEM, n), intracellular cAMP response
Procedure: (§1) Human GLP-1 Receptor HEK293 Cell cAMP Assay
(§2) GLP-1 Receptor functional activity is determined using cAMP formation in an HEK293 clonal cell line expressing human GLP-1R (NCBI accession number NP_002053) at an expression density of 581±94 (n=6) and 104±12 (n=5) fmol/mg protein (determined using [^125I]GLP-1(7-36)NH2 homologous competition binding analysis). The hGLP-1R receptor expressing cells are treated with compound (20 point concentration-response curve in DMSO, 2.75-fold Labcyte Echo direct dilution, 384 well plate Corning Cat #3570) in DMEM (Gibco Cat #31053) supplemented with 1× GlutaMAX™ (Gibco Cat #35050), 0.1% bovine casein (Sigma C4765-10ML), 250 μM IBMX (3-Isobutyl-1-methylxanthine, Acros Cat #228420010) and 20 mM HEPES (Gibco Cat #15630) in a 20 μL assay volume (final DMSO concentration is 0.5%). After a 30 min incubation at 37° C., the resulting increase in intracellular cAMP is quantitatively determined using the CisBio cAMP Dynamic 2 HTRF Assay Kit (62AM4PEJ). Briefly, cAMP levels within the cell are detected by adding the cAMP-d2 conjugate in cell lysis buffer (10 μL) followed by the antibody anti-cAMP-Eu^3+-Cryptate, also in cell lysis buffer (10 μL). The resulting competitive assay is incubated for at least 60 min at RT, then detected using a PerkinElmer Envision® instrument with excitation at 320 nm and emission at 665 nm and 620 nm. Envision units (emission at 665 nm/620 nm*10,000) are inversely proportional to the amount of cAMP present and are converted to nM cAMP per well using a cAMP standard curve. The amount of cAMP generated (nM) in each well is converted to a percent of the maximal response observed with human GLP-1(7-36)NH2. A relative EC50 value and percent top (Emax) are derived by non-linear regression analysis using the percent maximal response vs. the concentration of compound added, fitted to a four-parameter logistic equation.

human GLP-1R [2] = molecular target: T1, human GLP-1R; test: Human GLP-1 Receptor HEK293 cell cAMP assay, 104 fmol/mg GLP-1R expression density; format: cell-based; design: expressed in transfected cells; host or cells: HEK293 clonal cell line; settings: HEK293 cell line with 104 fmol/mg expression density of GLP-1R; for EC50: geometric mean, read-out: EC50 nM (SEM, n), intracellular cAMP response, relative EC50; for Emax: percent of maximal response to GLP-1(7-36)NH2, arithmetic mean, read-out: Emax % (SEM, n), intracellular cAMP response
Procedure: as §1, §2

T1 sequence (P43220 24-463): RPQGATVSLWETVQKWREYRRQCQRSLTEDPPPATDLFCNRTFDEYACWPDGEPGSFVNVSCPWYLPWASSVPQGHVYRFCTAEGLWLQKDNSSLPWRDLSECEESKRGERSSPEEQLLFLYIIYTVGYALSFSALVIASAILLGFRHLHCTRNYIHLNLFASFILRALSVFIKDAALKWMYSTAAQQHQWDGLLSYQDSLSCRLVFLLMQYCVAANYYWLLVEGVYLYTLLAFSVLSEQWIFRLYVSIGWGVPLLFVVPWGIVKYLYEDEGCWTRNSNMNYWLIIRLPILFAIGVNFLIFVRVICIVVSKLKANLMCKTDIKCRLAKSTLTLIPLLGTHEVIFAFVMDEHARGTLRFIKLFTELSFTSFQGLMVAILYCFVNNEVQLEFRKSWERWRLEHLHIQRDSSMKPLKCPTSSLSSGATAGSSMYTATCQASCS

Row | SMILES | EC50 (human GLP-1R [1]) | Emax (human GLP-1R [1]) | EC50 (human GLP-1R [2]) | Emax (human GLP-1R [2])
1 | N#Cc1ccc2c(c1)OCCOc1cc(c(F)cc1Cc1nc3ccc(C(=O)O)cc3n1C[C@@H]1CCO1)-c1cccc(n1)OC2 [Example 13, (S)-2-((5^4-Cyano-1^6-fluoro-3,6,9-trioxa-2(2,6)-pyridina-1(1,3),5(1,2)-dibenzenacyclononaphane-1^4-yl)methyl)-1-(oxetan-2-ylmethyl)-1H-benzo[d]imidazole-6-carboxylic acid] | 120 nM | 88.5% | 542 nM | 74.7%
2 | N#Cc1ccc2c(c1)COCc1cc(c(F)cc1Cc1nc3ccc(C(=O)O)cc3n1C[C@@H]1CCO1)-c1cccc(n1)OC2 [Example 14, (S)-2-((5^4-Cyano-1^6-fluoro-3,7-dioxa-2(2,6)-pyridina-1(1,3),5(1,2)-dibenzenacyclooctaphane-1^4-yl)methyl)-1-(oxetan-2-ylmethyl)-1H-benzo[d]imidazole-6-carboxylic acid] | 72.3 nM | 109% | 228 nM | 82.5%
3 | COc1cc(C(=O)O)cc2c1nc(Cc1cc(C)c3cc1OCCCc1cc(C#N)ccc1COc1cccc-3c1)n2C[C@@H]1CCO1 [Example 15, (S)-2-((5^4-Cyano-1^6-methyl-3,9-dioxa-1,2(1,3),5(1,2)-tribenzenacyclononaphane-1^4-yl)methyl)-4-methoxy-1-(oxetan-2-ylmethyl)-1H-benzo[d]imidazole-6-carboxylic acid] | 6.74 nM | 105% | 26.4 nM | 82.8%
4 | COc1cc(C(=O)O)cc2c1nc(Cc1cc(C)c3cc1OCCCc1cc(C(F)(F)F)ccc1COc1cccc-3n1)n2C[C@@H]1CCO1 [Example 16, (S)-4-Methoxy-2-((1^6-methyl-5^4-(trifluoromethyl)-3,9-dioxa-2(2,6)-pyridina-1(1,3),5(1,2)-dibenzenacyclononaphane-1^4-yl)methyl)-1-(oxetan-2-ylmethyl)-1H-benzo[d]imidazole-6-carboxylic acid] | 1.95 nM | 125% | 4.02 nM | 86.7%
5 | COc1cc(C(=O)O)cc2c1nc(Cc1cc(F)c3cc1COCc1cc(C#N)ccc1COc1cccc-3n1)n2C[C@@H]1CCO1 [Example 17, (S)-2-((5^4-cyano-1^6-fluoro-3,7-dioxa-2(2,6)-pyridina-1(1,3),5(1,2)-dibenzenacyclooctaphane-1^4-yl)methyl)-4-methoxy-1-(oxetan-2-ylmethyl)-1H-benzo[d]imidazole-6-carboxylic acid] | 10.5 nM | 121% | 38.4 nM | 84.6%
6 | O=C(O)c1ccc2nc(Cc3ccc4cc3OCCCc3cc(Br)ccc3COc3cccc-4n3)n(C[C@@H]3CCO3)c2c1 [Example 18, (S)-2-((5^4-Bromo-3,9-dioxa-2(2,6)-pyridina-1(1,3),5(1,2)-dibenzenacyclononaphane-1^4-yl)methyl)-1-(oxetan-2-ylmethyl)-1H-benzo[d]imidazole-6-carboxylic acid] | 50.3 nM | 115% | 169 nM | 94.9%
7 | N#Cc1ccc2c(c1)CCOCc1cc(ccc1Cc1nc3ccc(C(=O)O)cc3n1C[C@@H]1CCO1)-c1cccc(n1)OC2 [Example 19, (S)-2-((5^4-Cyano-3,8-dioxa-2(2,6)-pyridina-1(1,3),5(1,2)-dibenzenacyclononaphane-1^4-yl)methyl)-1-(oxetan-2-ylmethyl)-1H-benzo[d]imidazole-6-carboxylic acid] | 55.4 nM | 103% | 197 nM | 83%
8 | N#Cc1ccc2c(c1)CCOc1cc(c(F)cc1Cc1nc3ccc(C(=O)O)cc3n1C[C@@H]1CCO1)-c1cccc(n1)OC2 [Example 20, (S)-2-((5^4-Cyano-1^6-fluoro-3,8-dioxa-2(2,6)-pyridina-1(1,3),5(1,2)-dibenzenacyclooctaphane-1^4-yl)methyl)-1-(oxetan-2-ylmethyl)-1H-benzo[d]imidazole-6-carboxylic acid] | 58 nM | 105% | 226 nM | 89.9%
9 | N#Cc1ccc2cc1CCOCc1cc(ccc1Cc1nc3ccc(C(=O)O)cc3n1C[C@@H]1CCO1)-c1cccc(n1)OC2 [Example 21, (S)-2-((5^4-Cyano-3,8-dioxa-2(2,6)-pyridina-1,5(1,3)-dibenzenacyclononaphane-1^4-yl)methyl)-1-(oxetan-2-ylmethyl)-1H-benzo[d]imidazole-6-carboxylic acid] | 35.1 nM | 111% | 133 nM | 95.6%
10 | COc1cc(C(=O)O)cc2c1nc(Cc1cc(C)c3cc1OCCCc1cc(F)ccc1COc1cccc-3n1)n2C[C@@H]1CCO1 [Example 22, (S)-4-Methoxy-2-((1^6-methyl-5^4-(fluoro)-3,9-dioxa-2(2,6)-pyridina-1(1,3),5(1,2)-dibenzenacyclononaphane-1^4-yl)methyl)-1-(oxetan-2-ylmethyl)-1H-benzo[d]imidazole-6-carboxylic acid] | 2.86 nM | 112% | 10.6 nM | 80.9%
11 | COc1cc(C(=O)O)cc2c1nc(Cc1ccc3cc1OCCCc1cc(C#N)ccc1COc1cccc-3n1)n2Cc1ncco1 [Example 23, 2-((5^4-Cyano-3,9-dioxa-2(2,6)-pyridina-1(1,3),5(1,2)-dibenzenacyclononaphane-1^4-yl)methyl)-4-methoxy-1-(oxazol-2-ylmethyl)-1H-benzo[d]imidazole-6-carboxylic acid] | 69.3 nM | 106% | 344 nM | 83.7%
12 | COCCOc1cc(C(=O)O)cc2c1nc(Cc1ccc3cc1OCCCc1cc(C#N)ccc1COc1cccc-3n1)n2C[C@@H]1CCO1 [Example 24, (S)-2-((5^4-Cyano-3,9-dioxa-2(2,6)-pyridina-1(1,3),5(1,2)-dibenzenacyclononaphane-1^4-yl)methyl)-4-(2-methoxyethoxy)-1-(oxetan-2-ylmethyl)-1H-benzo[d]imidazole-6-carboxylic acid] | 2.34 nM | 116% | 6.6 nM | 89.6%
13 | O=C(O)c1ccc2nc(Cc3ccc4cc3OCCCc3cc(CO)ccc3COc3cccc-4n3)n(C[C@@H]3CCO3)c2c1 [Example 25, (S)-2-((5^4-(Hydroxymethyl)-3,9-dioxa-2(2,6)-pyridina-1(1,3),5(1,2)-dibenzenacyclononaphane-1^4-yl)methyl)-1-(oxetan-2-ylmethyl)-1H-benzo[d]imidazole-6-carboxylic acid] | 317 nM | 98.3% | 703 nM | 62.1%
14 | COc1cc(C(=O)O)cc2c1nc(Cc1cc(C)c3cc1OCCCc1nc(C(F)(F)F)ccc1COc1cccc-3n1)n2C[C@@H]1CCO1 [Example 26, (S)-4-Methoxy-2-((1^6-methyl-5^6-(trifluoromethyl)-3,9-dioxa-2(2,6),5(3,2)-dipyridina-1(1,3)-benzenacyclononaphane-1^4-yl)methyl)-1-(oxetan-2-ylmethyl)-1H-benzo[d]imidazole-6-carboxylic acid; 1,3,4,6,7,8-hexahydro-2H-pyrimido[1,2-a]pyrimidine] | 1.66 nM | 116% | 5.64 nM | 91.3%
15 | COc1cc(C(=O)O)cc2c1nc(Cc1cc(C)c3cc1OCCCc1cnccc1COc1cccc-3n1)n2C[C@@H]1CCO1 [Example 27, (S)-4-Methoxy-2-((1^6-methyl-3,9-dioxa-2(2,6),5(4,3)-dipyridina-1(1,3)-benzenacyclononaphane-1^4-yl)methyl)-1-(oxetan-2-ylmethyl)-1H-benzo[d]imidazole-6-carboxylic acid] | 50.7 nM | 107% | 165 nM | 82.5%
16 | O=C(O)c1ccc2nc(Cc3ccc4cc3OCCCc3cc(-c5cnn(CC6COC6)c5)ccc3COc3cccc-4n3)n(C[C@@H]3CCO3)c2c1 [Example 28, (S)-1-(Oxetan-2-ylmethyl)-2-((5^4-(1-(oxetan-3-ylmethyl)-1H-pyrazol-4-yl)-3,9-dioxa-2(2,6)-pyridina-1(1,3),5(1,2)-dibenzenacyclononaphane-1^4-yl)methyl)-1H-benzo[d]imidazole-6-carboxylic acid] | 98.4 nM | 104% | 287 nM | 74.9%
